pIC50: −log10 of the molar value.
What was measured:
[1] = molecular target: E3 ubiquitin-protein ligase CBL-B (Homo sapiens, UniProt Q13191); assay: Inhibition of N-terminal Avi-tagged human CBL-B (36 to 427 residues) incubated with 60 nM Src kinase for 1.5 hrs followed by incubation with fluorescently labeled UbcH5B-Ub for 1 hr and measured by TR-FRET assay; type: single protein
[2] = Induction of anti-CD3/CD28 antibodies-stimulated human T cell activation at 4 uM assessed fold increase in IL-2 secretion measured by ELISA assay; type: functional, T cell line
[3] = Induction of anti-CD3/CD28 antibodies-stimulated human T cell activation at 1 uM assessed fold increase in IL-2 secretion measured by ELISA assay; type: functional, T cell line
[4] = Induction of anti-CD3/CD28 antibodies-stimulated human T cell activation at 0.3 uM assessed fold increase in IL-2 secretion measured by ELISA assay; type: functional, T cell line
[5] = Induction of anti-CD3 antibodies-stimulated human T cell activation at 8 uM assessed fold increase in IL-2 secretion measured by ELISA assay; type: functional, T cell line; also: reference of the scale not given here
[6] = Induction of anti-CD3 antibodies-stimulated human T cell activation at 1 uM assessed fold increase in IL-2 secretion measured by ELISA assay; type: functional, T cell line; also: reference of the scale not given here
[7] = Induction of anti-CD3/CD28 antibodies-stimulated human T cell activation at 4 uM assessed fold increase in CD25 expression measured by ELISA assay; type: functional, T cell line
[8] = Induction of anti-CD3/CD28 antibodies-stimulated human T cell activation at 1 uM assessed fold increase in CD25 expression measured by ELISA assay; type: functional, T cell line
[9] = Induction of anti-CD3/CD28 antibodies-stimulated human T cell activation at 0.3 uM assessed fold increase in CD25 expression measured by ELISA assay; type: functional, T cell line
[10] = Induction of anti-CD3 antibodies-stimulated human T cell activation at 8 uM assessed fold increase in CD25 expression measured by ELISA assay; type: functional, T cell line; also: reference of the scale not given here
[11] = Induction of anti-CD3 antibodies-stimulated human T cell activation at 1 uM assessed fold increase in CD25 expression measured by ELISA assay; type: functional, T cell line; also: reference of the scale not given here

Sequence of E3 ubiquitin-protein ligase CBL-B (Q13191 whole entry, the tested form may be a part): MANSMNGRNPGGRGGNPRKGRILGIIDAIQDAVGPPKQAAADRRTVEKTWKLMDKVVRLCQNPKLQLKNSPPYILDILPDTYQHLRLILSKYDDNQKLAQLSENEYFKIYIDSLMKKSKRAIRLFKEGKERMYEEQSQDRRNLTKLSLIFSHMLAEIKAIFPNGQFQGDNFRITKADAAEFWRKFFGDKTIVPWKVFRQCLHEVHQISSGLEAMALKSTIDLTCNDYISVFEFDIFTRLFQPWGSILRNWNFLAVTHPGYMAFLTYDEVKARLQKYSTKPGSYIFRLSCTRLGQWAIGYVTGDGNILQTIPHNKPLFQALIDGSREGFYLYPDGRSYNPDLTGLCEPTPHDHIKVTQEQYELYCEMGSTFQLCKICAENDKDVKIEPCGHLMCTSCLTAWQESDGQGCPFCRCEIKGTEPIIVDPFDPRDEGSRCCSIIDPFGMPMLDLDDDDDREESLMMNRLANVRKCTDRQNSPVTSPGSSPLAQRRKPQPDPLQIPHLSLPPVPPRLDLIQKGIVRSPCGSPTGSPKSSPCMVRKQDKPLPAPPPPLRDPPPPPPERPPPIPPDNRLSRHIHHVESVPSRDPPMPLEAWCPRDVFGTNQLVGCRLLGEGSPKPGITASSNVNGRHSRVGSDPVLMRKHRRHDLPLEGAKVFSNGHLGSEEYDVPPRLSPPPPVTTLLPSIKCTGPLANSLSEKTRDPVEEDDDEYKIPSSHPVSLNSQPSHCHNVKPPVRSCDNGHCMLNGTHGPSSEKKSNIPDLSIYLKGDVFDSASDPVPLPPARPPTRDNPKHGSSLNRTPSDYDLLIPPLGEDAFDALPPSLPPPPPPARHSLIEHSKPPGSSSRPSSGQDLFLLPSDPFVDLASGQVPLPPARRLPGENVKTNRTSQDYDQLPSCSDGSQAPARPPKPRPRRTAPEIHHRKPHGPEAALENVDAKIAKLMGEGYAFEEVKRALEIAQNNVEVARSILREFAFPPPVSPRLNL

Compound	pIC50 [1]	fold change (FC) [2]	fold change (FC) [3]	fold change (FC) [4]	fold change (FC) [5]	fold change (FC) [6]	fold change (FC) [7]	fold change (FC) [8]	fold change (FC) [9]	fold change (FC) [10]	fold change (FC) [11]
C[C@H](c1cc2c(c(C(F)(F)F)c1)CN(c1cccc([C@@](C)(F)C(F)(F)c3nncn3C)c1)C2=O)N1CC[C@H](F)C1	> 7.00	>=7.5	>=7.5	2.51	>=0.201	>=0.201	1.51	1.31	1.01	>=1.001	>=1.001
C[C@H](Sc1nncn1C)c1cccc(NC(=O)c2ccc(CO)c(C3CC3)n2)c1	> 7.00	5	2.51	1.01	0.101	<=0.05	1.31	1.01	1.01	0.801	<=0.6
Cn1cnnc1CC1(c2cccc(N3Cc4c(cccc4C(F)(F)F)C3=O)c2)CC1	> 7.00	5	2.51	2.51	>=0.201	0.051	1.01	1.01	<=1	>=1.001	>=1.001
C[C@H](Cc1nncn1C)c1cccc(N2Cc3c(cc(C(=O)N4CC(O)C4)cc3C3CC3)C2=O)c1	> 7.00	2.51	1.01	1.01	>=0.201	0.151	1.01	1.01	1.01	>=1.001	0.801
Cn1cnnc1C(F)(F)[C@](C)(F)c1cccc(N2Cc3c(cc(CN4C[C@@H](F)[C@@H](F)C4)cc3C(F)(F)F)C2=O)c1	> 7.00	>=7.5	5	2.51	>=0.201	0.151	1.51	1.31	1.31	>=1.001	>=1.001
C[C@H](Cc1nncn1C)c1cccc(N2Cc3c(cc([C@H](C)N4CC(O)C4)cc3C(F)(F)F)C2=O)c1	> 7.00	>=7.5	>=7.5	5	>=0.201	>=0.201	1.31	1.31	1.01	>=1.001	>=1.001
C[C@H](Cc1nncn1C)c1cccc(N2Cc3c(cc([C@@H](C)N4CC(O)C4)cc3C(F)(F)F)C2=O)c1	> 7.00	>=7.5	5	2.51	>=0.201	>=0.201	1.31	1.31	1.01	>=1.001	0.801
CN1CC2CCC(C1)N2c1cc2c(c(C(F)(F)F)c1)CN(c1cccc([C@@](C)(F)C(F)(F)c3nncn3C)c1)C2=O	> 7.00	>=7.5	>=7.5	5	>=0.201	>=0.201	1.51	1.51	1.31	>=1.001	>=1.001
C[C@H](Cc1nncn1C)c1cccc(NC(=O)c2cc3cc(N4CCN(C)C(=O)C4)ccc3cn2)c1.O=C(O)C(F)(F)F	> 7.00	>=7.5	5	5	>=0.201	>=0.201	1.51	1.31	1.31	>=1.001	<=0.6
Cc1cc(C(=O)Nc2cccc(C3(Cc4nncn4C)COC3)c2)nc(C(F)(F)F)n1	> 7.00	>=7.5	2.51	1.01	>=0.201	0.101	1.01	1.01	1.01	>=1.001	0.801
CC(=O)N1CCN(c2ccc3cnc(C(=O)Nc4cccc([C@H](C)Cc5nncn5C)c4)cc3c2)CC1.O=C(O)C(F)(F)F	> 7.00	>=7.5	5	2.51	>=0.201	>=0.201	1.51	1.01	1.01	>=1.001	0.601
Cn1cnnc1[C@@H]1C[C@@H]1c1cccc(N2Cc3c(cc(CN4CC[C@H](F)C4)cc3C(F)(F)F)C2=O)c1	> 7.00	>=7.5	>=7.5	2.51	>=0.201	>=0.201	1.51	1.31	1.31	>=1.001	>=1.001
CC(c1cc2c(c(C(F)(F)F)c1)CN(c1cccc([C@H]3C[C@H]3c3nncn3C)c1)C2=O)N1CC[C@H](F)C1 (stereo not given in full)	> 7.00	>=7.5	>=7.5	2.51	>=0.201	>=0.201	1.51	1.51	1.31	>=1.001	>=1.001
C[C@@H](c1cccc(N2Cc3c(cccc3C(F)(F)F)C2=O)c1)[C@@H](F)c1nncn1C (single isomer, unassigned)	> 7.00	2.51	1.01	1.01	>=0.201	0.051	1.01	1.01	1.01	>=1.001	0.601
Cc1cc(C(=O)Nc2cccc([C@H](C)Cc3nocc3C)c2)nc(C2CC2)n1	> 7.00	5	2.51	1.01	>=0.201	0.051	1.01	1.01	1.01	>=1.001	0.801
